Series [1] has as its target T1, Progesterone receptor (Homo sapiens, UniProt P06401).
T1 sequence (P06401 whole entry): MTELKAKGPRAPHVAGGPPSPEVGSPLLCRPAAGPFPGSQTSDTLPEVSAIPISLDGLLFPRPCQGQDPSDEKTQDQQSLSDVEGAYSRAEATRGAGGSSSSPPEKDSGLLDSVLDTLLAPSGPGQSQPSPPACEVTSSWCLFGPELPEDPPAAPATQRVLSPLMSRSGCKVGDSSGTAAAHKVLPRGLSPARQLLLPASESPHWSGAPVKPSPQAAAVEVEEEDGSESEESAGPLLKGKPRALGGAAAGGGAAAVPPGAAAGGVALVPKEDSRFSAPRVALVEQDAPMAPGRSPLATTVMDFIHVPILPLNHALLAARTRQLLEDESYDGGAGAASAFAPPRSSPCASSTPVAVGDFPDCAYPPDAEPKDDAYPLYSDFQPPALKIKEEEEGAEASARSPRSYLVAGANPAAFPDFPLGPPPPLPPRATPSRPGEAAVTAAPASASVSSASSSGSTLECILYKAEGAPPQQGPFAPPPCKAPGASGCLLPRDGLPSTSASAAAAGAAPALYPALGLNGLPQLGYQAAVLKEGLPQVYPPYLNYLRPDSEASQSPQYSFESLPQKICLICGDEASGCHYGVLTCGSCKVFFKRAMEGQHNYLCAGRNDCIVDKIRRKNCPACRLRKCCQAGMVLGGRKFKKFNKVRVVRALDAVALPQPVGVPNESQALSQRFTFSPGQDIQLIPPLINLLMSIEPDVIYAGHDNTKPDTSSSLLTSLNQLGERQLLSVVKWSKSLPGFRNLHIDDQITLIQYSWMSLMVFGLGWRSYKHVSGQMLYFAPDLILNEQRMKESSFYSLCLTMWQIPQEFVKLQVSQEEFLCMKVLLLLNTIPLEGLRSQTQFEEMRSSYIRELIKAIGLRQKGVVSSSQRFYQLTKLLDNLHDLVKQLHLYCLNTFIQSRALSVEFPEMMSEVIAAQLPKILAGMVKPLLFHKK
Kind of series: Displacement of [3H]ORG2058 from progesterone receptor in human breast carcinoma cytosol at 0.5 to 3.5 uM by liquid scintillation counting based DCC competitive binding assay. For orientation: In a radioligand displacement assay an active substance lowers the binding of a labelled ligand.

The target in series [2] is T2, Nuclear receptor subfamily 1 group I member 2 (Homo sapiens, UniProt O75469).
T2 sequence (O75469 whole entry): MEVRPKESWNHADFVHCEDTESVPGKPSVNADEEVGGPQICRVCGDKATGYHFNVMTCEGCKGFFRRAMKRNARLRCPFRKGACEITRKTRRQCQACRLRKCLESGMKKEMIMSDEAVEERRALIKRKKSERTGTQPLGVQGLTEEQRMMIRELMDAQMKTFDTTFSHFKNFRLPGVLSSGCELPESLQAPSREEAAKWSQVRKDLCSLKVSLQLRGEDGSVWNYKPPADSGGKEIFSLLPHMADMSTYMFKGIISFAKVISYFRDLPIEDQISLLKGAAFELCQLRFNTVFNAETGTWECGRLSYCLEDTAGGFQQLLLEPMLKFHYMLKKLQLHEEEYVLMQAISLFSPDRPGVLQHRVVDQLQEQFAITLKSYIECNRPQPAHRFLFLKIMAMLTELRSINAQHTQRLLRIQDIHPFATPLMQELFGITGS
Kind of series: Activation of human PXR at 10 nM to 10 uM. It counts as ADME. The note with it: 0.01 µM.

Series [3] concerns the target P-gp (ABCB1) (Homo sapiens, UniProt P08183). The experiment in a line: Inhibition of P-gp in human K562/R7 cells assessed as daunorubicin accumulation at 10 uM incubated fro 1 hr by flow cytometry relative to cyclosporine A. Type of series: cell-based. The note with it: probe daunorubicin, read-out: Activity. In general terms: In flow cytometry, cells or beads pass a laser one at a time.

The test system of series [4] is K562/R7. The experiment in a line: Potentiation of doxorubicin-induced antitumor activity against human K562/R7 cells xenografted in SCID mouse assessed as reduction in tumor volume at 10 mg/kg co-treated with 1.5 mg/kg doxorubicin after 40 days post dose. Type of series: functional, organism-based. (A xenograft is tissue or cells of one species grown in another, often human tumour cells in immunodeficient mice.)

For series [5], the system named is NCI-H295R. The experiment in a line: Potentiation of doxorubicin-induced antitumor activity against human NCI-H295R cells xenografted in SCID mouse assessed as reduction in tumor volume at 10 mg/kg co-treated with 1.5 mg/kg doxorubicin after 40 days post dose. Type of series: functional, organism-based.
The subject of series [6] is NCI-H295R. The experiment in a line: Potentiation of doxorubicin-induced antitumor activity against human NCI-H295R cells xenografted in SCID mouse assessed as reduction in tumor volume at 10 mg/kg co-treated with 1.5 mg/kg doxorubicin measured up to 80 days. It counts as functional, organism-based.
The subject of series [7] is K562/R7. The experiment in a line: Potentiation of doxorubicin-induced antitumor activity against human K562/R7 cells xenografted in SCID mouse assessed as reduction in tumor volume at 10 mg/kg co-treated with 1.5 mg/kg doxorubicin measured up to 80 days. It counts as functional, organism-based.

Each structure is given as a SMILES string. Active and inactive are the calls of the source. The calls are words filed in the database; no cut-off is given here.

Chain of P-gp (ABCB1) (P08183 whole entry): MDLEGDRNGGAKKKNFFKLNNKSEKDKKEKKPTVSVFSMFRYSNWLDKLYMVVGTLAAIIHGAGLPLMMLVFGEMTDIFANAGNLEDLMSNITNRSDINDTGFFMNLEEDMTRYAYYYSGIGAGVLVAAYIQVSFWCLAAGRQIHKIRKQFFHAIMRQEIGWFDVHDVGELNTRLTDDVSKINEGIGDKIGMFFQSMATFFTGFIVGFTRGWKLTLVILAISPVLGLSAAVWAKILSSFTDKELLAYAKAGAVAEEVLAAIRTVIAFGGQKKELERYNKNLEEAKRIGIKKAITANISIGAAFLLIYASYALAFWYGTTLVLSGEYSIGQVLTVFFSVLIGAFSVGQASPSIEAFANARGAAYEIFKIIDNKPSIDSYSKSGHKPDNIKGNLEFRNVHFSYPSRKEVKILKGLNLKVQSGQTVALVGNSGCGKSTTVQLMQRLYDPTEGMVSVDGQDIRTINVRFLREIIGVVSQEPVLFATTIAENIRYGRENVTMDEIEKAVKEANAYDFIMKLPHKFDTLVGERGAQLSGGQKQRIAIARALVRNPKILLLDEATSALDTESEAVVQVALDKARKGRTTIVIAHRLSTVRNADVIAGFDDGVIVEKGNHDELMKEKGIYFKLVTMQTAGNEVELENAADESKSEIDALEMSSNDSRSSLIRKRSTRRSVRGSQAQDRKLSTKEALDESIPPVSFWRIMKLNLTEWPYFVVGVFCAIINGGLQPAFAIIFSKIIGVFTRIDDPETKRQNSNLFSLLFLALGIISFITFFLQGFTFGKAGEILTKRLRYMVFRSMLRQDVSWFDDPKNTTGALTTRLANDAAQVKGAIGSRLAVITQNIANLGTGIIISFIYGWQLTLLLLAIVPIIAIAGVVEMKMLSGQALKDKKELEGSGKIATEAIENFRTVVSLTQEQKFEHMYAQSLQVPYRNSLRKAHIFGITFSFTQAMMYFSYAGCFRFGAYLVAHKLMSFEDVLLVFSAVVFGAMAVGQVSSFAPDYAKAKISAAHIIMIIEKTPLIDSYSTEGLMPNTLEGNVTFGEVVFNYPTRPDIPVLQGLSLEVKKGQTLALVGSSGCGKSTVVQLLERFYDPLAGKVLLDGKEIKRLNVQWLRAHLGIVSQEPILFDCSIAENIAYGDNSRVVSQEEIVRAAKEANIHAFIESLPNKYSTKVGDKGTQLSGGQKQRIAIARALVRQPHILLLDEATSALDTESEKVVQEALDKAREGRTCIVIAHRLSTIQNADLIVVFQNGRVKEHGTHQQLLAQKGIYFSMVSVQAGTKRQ

As for `CC(=O)[C@H]1CC[C@H]2[C@H]3[C@H]([C@H](OC(=O)c4ccccc4)C[C@]12C)[C@@]1(C)CCC(=O)C[C@H]1C[C@H]3OC(=O)c1ccccc1`, the Activity entry in series [1] and in series [2] was “Not Active” throughout.
Turning to `CC(=O)[C@@]1(O[C@H]2CCCCO2)CC[C@H]2[C@@H]3CC[C@@H]4CC(=O)CC[C@]4(C)[C@H]3[C@H](O[C@H]3CCCCO3)C[C@@]21C`, the Activity result in series [1] and in series [2] was “Not Active” in each case.
As to `CC(=O)[C@H]1CC[C@H]2[C@H]3[C@H]([C@H](O[C@@H]4CCCCO4)C[C@]12C)[C@@]1(C)CCC(=O)C[C@H]1C[C@H]3OC(=O)c1ccccc1`, in series [3], the inhibition at 1 h, 10 µM stood at 119%. Further, the outcome in series [4], in series [5], in series [6] and in series [7] was Active. Further, the Activity entry in series [1] and in series [2] was “Not Active” throughout.
`CC(=O)[C@H]1CC[C@H]2[C@H]3[C@H]([C@H](O[C@@H]4CCCCO4)C[C@]12C)[C@@]1(C)CCC(=O)C[C@H]1C[C@@H]3OC(=O)c1ccccc1`: the Activity entry in series [2] is listed as “Not Active”.
Turning to `COC(=O)CC[C@@H](C)[C@H]1CC[C@H]2[C@@H]3[C@H](OC(=O)c4ccccc4)CC4CC(=O)CC[C@]4(C)[C@H]3C[C@H](O[C@@H]3CCCCO3)[C@]12C` (single isomer, unassigned), the inhibition at 1 h, 10 µM in series [3] was found to be 79.8%.
For the compound `CC(=O)[C@H]1CC[C@H]2[C@H]3[C@H]([C@H](OC(=O)c4ccccc4)C[C@]12C)[C@@]1(C)CCC(=O)C[C@H]1C[C@@H]3OC(=O)c1ccccc1`, the Activity entry in series [1] is reported as “Not Active”.
Take `CC(=O)[C@@]1(O[C@@H]2CCCCO2)CC[C@H]2[C@@H]3CC[C@@H]4CC(=O)CC[C@]4(C)[C@H]3[C@H](O[C@H]3CCCCO3)C[C@@]21C`: the Activity result in series [2] is reported as “Not Active”.
With `CC(=O)[C@@]1(O[C@@H]2CCCCO2)CC[C@H]2[C@@H]3CC[C@@H]4CC(=O)CC[C@]4(C)[C@H]3[C@H](O[C@@H]3CCCCO3)C[C@@]21C`, the Activity entry in series [2] is recorded as “Not Active”.
